Source: patent USRE47607E1, “Luciferase signal enhancing compositions” (GENE STREAM PTY LTD, priority 2006, dated 2019)
Entries after “also recorded” stand apart in the source; their conditions may differ.

What was measured:
[1] = system: non-secreted Gaussia luciferase; experiment: non-secreted Gaussia luciferase activity in HeLa cell lysates; assay type: biochemical; conditions: 50-100 mM urea in lysis buffer, glutathione in both buffers; FIG. 24
[2] = system: non-secreted Metridia luciferase; experiment: non-secreted Metridia luciferase activity in HeLa cell lysates; assay type: biochemical; conditions: for signal intensity: chelator in lysis buffer without salt, 30 or 120 min lysis, FIGS. 10A, 10B; for increase in activity between 30 and 120 min lysis: salt 150 mM in lysis buffer, % of light units at 30 min lysis, FIG. 26; for light units (% of those obtained using 0.1% NP40): detergent type and concentration varied, 40 or 120 min, FIGS. 14A, 14B
Description: HeLa cells stably expressing either non-secreted and destabilized Gaussia or non-secreted and destabilized Metridia luciferase were plated onto 96-well plates and incubated overnight. Medium was removed and the cells lysed in 20 ul of lysis buffer per well. The lysis buffer comprised; 25 mM Tris pH 8.1; 0.1% NP40; 63.4 uM Na-Oxalate; 5% Glycerol plus the concentration and type of salt indicated in FIG. 4. Replicate samples were assayed for luciferase activity after 30 minutes following addition of the lysis buffer by injecting 60 ul of assay buffer. The assay buffer comprised 25 mM Tris pH 7.75; 2 mM Ascorbate; 24 uM Cz. Results were expressed as a % of the light units obtained in the absence of salt (see FIG. 4).
Luciferase assays were performed as described in Example 5 with either non-secreted and destabilized Gaussia luciferase or non-secreted and destabilized Metridia luciferase. Two experiments are shown as separate graphs, with results shown as relative luminescence in counts per second (CPS) (see FIGS. 5A and 5B). Within each experiment, the lysis buffer and assay buffer differed only in the amount and type of salt added as indicated. Replicate samples were analysed at 120 min after addition of the lysis buffer (LB) by injecting 60 ul of assay buffer (AB).
Luciferase assays were performed with non-secreted and destabilized Metridia luciferase as described in Example 5, except the lysis buffer contained no salt and but contained the indicated type and concentration of chelators. Replicate luciferase assay were carried out after a 30 or 120 min lysis period. Results from the 30 min time point were expressed as a % of the light units obtained in the absence of chelator (see FIG. 10A) and results from the 120 min time point were expressed as % of the light units obtained with the same lysis buffer at 30 min (see FIG. 10B).
HeLa cells expressing destabilised, non-secreted Gaussia or non-secreted Metridia luciferases were plated in equal aliquots onto 96-well plates and incubated overnight. Medium was removed and the cells lysed in 20 ul of lysis buffer. The detergent type and concentration was varied as indicated. Luciferase assays were carried out by injecting 60 ul of assay buffer comprising 25 mM Tris pH 8.1; 1 mM EDTA, 2 mM Ascorbate; 24 uM Cz Two experiments are shown, in the first the lysis buffer also contained 5% glycerol, 64 uM sodium oxalate, 150 mM NaBr, 25 mM Tris pH 8.5, 5 mM EDTA, 0.6 mM reduced glutathione, 0.4 mM oxidised glutathione, 75 mM urea (v6) and luciferase activity was assayed at 40 min. In the second experiment, the lysis buffer also contained 2 5 mM Tris pH 8.1, 63.4 uM Na-oxalate, 150 mM NaBr, 5% Glycerol and the luciferase activity was assayed at 120 min. Results were expressed as the % of the light units obtained using 0.1% NP40 (see FIGS. 14A and 14B). […]
HeLa cells expressing destabilised, non-secreted Metridia luciferase were plated in equal aliquots onto 96-well plates and incubated overnight.

[3] = system: non-secreted Gaussia luciferase; experiment: non-secreted Gaussia luciferase activity in HeLa cell lysates; assay type: biochemical; conditions: for signal intensity: chelator type and concentration varied, 30 min lysis, FIG. 9; for light output (% of light units obtained in the absence of salt): salt in lysis buffer, assayed 40 min after lysis buffer, FIG. 3; for signal intensity with detergent in lysis buffer: detergent 0.1% in lysis buffer unless otherwise indicated, FIGS. 13A-C; for light units (% of those obtained using 0.1% NP40): detergent type and concentration varied, 40 or 120 min, FIGS. 14A, 14B; for stability of luciferase activity between 20 and 90 min after onset of cell lysis: salt and EDTA in lysis buffer, % of light units at 20 min lysis, FIG. 7
Description: HeLa cells stably expressing non-secreted and destabilized Gaussia luciferase were plated onto 96-well plates and incubated overnight. Medium was removed and the cells lysed in 30 ul of lysis buffer per well. The lysis buffer (LB) comprised; 25 mM Tris pH 7.8; 0.1% NP40; 1 mM EDTA plus NaBr at concentrations of (from left to right) 0 mM, 150 mM, 0 mM and 75 mM. Luciferase activity was assayed by injecting 30 ul of an assay buffer (AB) comprising 25 mM Tris pH 7.8; 40 uM Cz plus NaBr at concentrations of (from left to right) 0 mM, 0 mM, 150 mM and 75 mM. Thus, the final concentration of NaBr was 75 mM in all samples, except the no salt controls. Results were expressed as relative light units (RLU) (See FIG. 2).
HeLa cells stably expressing non-secreted and destabilized Gaussia luciferase were plated onto 96-well plates and incubated overnight. Medium was removed and the cells lysed in 20 ul of lysis buffer per well. The lysis buffer comprised; 25 mM Tris pH 8.1, 1 mM EDTA; 0.1% NP40; 63.4 uM Na-Oxalate; 5% Glycerol plus the concentration and type of salt indicated in FIG. 3. Luciferase activity was assayed at 40 min after addition of the lysis buffer (by injecting 60 ul of an assay buffer comprising 25 mM Tris pH 8.1; 1 mM EDTA, 2 mM Ascorbate; 26 uM Cz. Results were expressed as a % of the light units obtained in the absence of salt (see FIG. 3). […]
Luciferase assays were performed as described in Example 4. All salts were present at 150 mM in lysis buffer.
Luciferase assays were performed as described in Example 7, except using the indicated concentrations of salt and EDTA in the lysis buffer. Replicate samples were assayed for luciferase activity at 20, 30, 40 and 90 min after addition of lysis buffer. Results were expressed as a % of the light units obtained after 20 min lysis in the same lysis buffer (see FIG. 7).
Luciferase assays were performed as described in Example 8, except using lysis buffer containing 150 mM NaBr and the indicated concentration of EDTA. Two experiments are shown as separate graphs, with results shown as relative light units (RLU) (see FIGS. 8A and 8B). Within each experiment, the same assay buffer was used for all samples and the lysis buffer differed only in the amount of EDTA as indicated. Replicate samples were assayed for activity of non-secreted Gaussia luciferase at 30 or 120 min after addition of lysis buffer.
Luciferase assays were performed as described in Example 9, except using the indicated type and concentration of chelator and a 30 min lysis period.
HeLa cells expressing destabilised, non-secreted Gaussia luciferase were plated in equal aliquots onto 96-well plates and incubated overnight. Three experiments are shown as separate graphs (FIGS. 13A, 13B and 13C). Within each experiment, the same assay buffer was used for all samples and the lysis buffer differed only in the type of detergent used (0.1% in lysis buffer unless otherwise indicated).
HeLa cells expressing destabilised, non-secreted Gaussia or non-secreted Metridia luciferases were plated in equal aliquots onto 96-well plates and incubated overnight. Medium was removed and the cells lysed in 20 ul of lysis buffer. The detergent type and concentration was varied as indicated.

Renilla luciferase = Renilla luciferase (Renilla reniformis, UniProt P27652); conditions: EDTA in lysis buffer, 30 min; FIG. 12
Description: (§1) HeLa cells expressing Firefly or Renilla luciferases were plated into 96-well plates and incubated overnight. Medium was removed and the cells lysed in 20 ul of lysis buffer containing 25 mM Tris pH 8.1; 0.1% NP40; 63.4 uM Na-Oxalate; 5% Glycerol, 150 mM NaCl plus the concentration of EDTA in FIG. 12. Replicate samples were assayed for luciferase activity at 30 min by injecting 30 ul of Firefly assay buffer II containing Firefly substrate followed by 30 ul of Promega's “Stop and Glo” buffer containing Renilla substrate. Results are expressed as a % of the light units obtained in the absence of EDTA (see FIG. 12).

Firefly luciferase = Firefly luciferase (Photinus pyralis, UniProt P08659); conditions: EDTA in lysis buffer, 30 min; FIG. 12
Description: as §1

[4] = system: secreted Gaussia luciferase; experiment: secreted Gaussia luciferase activity in conditioned medium of transfected HeLa cells; assay type: biochemical; conditions: salt in assay buffer, 26 uM Cz, pH 8.1; FIG. 1
Description: HeLa cells were transiently transfected with a plasmid expressing native, secreted Gaussia luciferase and 24 hrs later the conditioned medium was collected. Wells of a 96-well plate were loaded with 20 ul of conditioned medium and assayed for luciferase activity by injecting 60 ul of an assay buffer comprising 26 uM Cz; pH 8.1 plus the salt as indicated in FIG. 1. Results were expressed as a % of the light units obtained in the absence of salt (FIG. 1).

Sequence of Renilla luciferase (P27652 whole entry): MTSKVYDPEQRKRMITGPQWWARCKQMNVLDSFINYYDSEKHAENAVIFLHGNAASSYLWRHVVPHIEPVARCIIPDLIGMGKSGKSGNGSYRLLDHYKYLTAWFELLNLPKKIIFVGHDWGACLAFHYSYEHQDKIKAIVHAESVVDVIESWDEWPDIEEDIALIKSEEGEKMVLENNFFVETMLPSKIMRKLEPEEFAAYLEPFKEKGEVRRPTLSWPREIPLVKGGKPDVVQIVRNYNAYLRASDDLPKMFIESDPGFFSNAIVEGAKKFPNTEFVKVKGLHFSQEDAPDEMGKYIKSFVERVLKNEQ
Sequence of Firefly luciferase (P08659 whole entry): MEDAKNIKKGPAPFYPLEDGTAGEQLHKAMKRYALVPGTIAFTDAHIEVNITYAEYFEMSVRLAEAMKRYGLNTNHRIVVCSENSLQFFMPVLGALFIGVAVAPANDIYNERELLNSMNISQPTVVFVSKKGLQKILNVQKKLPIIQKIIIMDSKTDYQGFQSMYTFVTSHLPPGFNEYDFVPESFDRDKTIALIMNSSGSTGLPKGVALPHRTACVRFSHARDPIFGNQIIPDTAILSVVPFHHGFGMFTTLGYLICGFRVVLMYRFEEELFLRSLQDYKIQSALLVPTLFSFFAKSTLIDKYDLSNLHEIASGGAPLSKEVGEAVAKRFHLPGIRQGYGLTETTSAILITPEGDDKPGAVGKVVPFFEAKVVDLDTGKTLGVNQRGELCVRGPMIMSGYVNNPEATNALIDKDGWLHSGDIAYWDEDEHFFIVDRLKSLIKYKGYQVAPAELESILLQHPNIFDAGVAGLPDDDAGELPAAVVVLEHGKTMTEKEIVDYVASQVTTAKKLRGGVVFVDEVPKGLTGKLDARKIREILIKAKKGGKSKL

NC(N)=O [urea]
increase in signal between 15 and 60 min lysis [1]: increase was less pronounced

O=C(O)CN(CCOCCOCCN(CC(=O)O)CC(=O)O)CC(=O)O [EGTA]
signal intensity [2]: concentration-dependent beneficial effect on signal intensity | signal intensity [3]: concentration-dependent beneficial effect on signal intensity

N[C@@H](CCC(=O)N[C@@H](CS)C(=O)NCC(=O)O)C(=O)O [reduced glutathione]
rate at which luciferase acquires maximum activity during cell lysis; signal ([3]; total glutathione and reduced:oxidized ratio varied, 20 or 60 min, FIG. 21): somewhat reduced signal was seen at 60 minutes

CCCCCCCCCCCCCCCC[N+](C)(C)C.[Br-] [CTAB]
effect of cationic detergent on signal intensity ([3]; data not shown, luciferase not specified, stated under Example 15): strong inhibitory effect on signal intensity

[Cl-].[Na+] [NaCl]
increase in activity between 30 and 120 min lysis [2]: more than 1200% | light output (% of light units obtained in the absence of salt) [3]: increased light output compared to no salt

CCCCCCCCCCCCOS(=O)(=O)[O-].[Na+] [SDS]
light units (% of those obtained using 0.1% NP40) [2]: blocks enzymatic activity; also recorded: concentration-dependent inhibition on signal intensity. This effect was most evident | signal intensity with detergent in lysis buffer [3]: do not perform well | light units (% of those obtained using 0.1% NP40) [3]: blocks enzymatic activity; also recorded: concentration-dependent inhibition on signal intensity. This effect was most evident

O=C(O)CN(CCN(CC(=O)O)CC(=O)O)CC(=O)O [EDTA]
signal intensity [2]: concentration-dependent beneficial effect on signal intensity | increase in activity between 30 and 120 min lysis [2]: performed considerably better | light units (% of those obtained in the absence of EDTA) (Renilla luciferase): does not provide the same beneficial effect on signal intensity | light units (% of those obtained in the absence of EDTA) (Firefly luciferase): clearly decreases the activity of Firefly luciferase | signal intensity [3]: concentration-dependent beneficial effect on signal intensity | signal intensity and stability of signal over time in lysis buffer ([3]; lysis buffer with 150 mM NaBr and varied EDTA, 30 or 120 min, FIGS. 8A, 8B): benefit of higher amounts of EDTA in terms of both signal intensity and the stability of the luciferase signal over time in lysis buffer | stability of luciferase activity between 20 and 90 min after onset of cell lysis [3]: far more stable (and therefore more desirable) level of luciferase activity

NP40
light units (% of those obtained using 0.1% NP40) [2]: highest signal intensity | effect of % NP40 in lysis buffer on signal strength ([3]; FIGS. 16A, 16B): signal strength declined with increasing amounts of detergent | signal intensity with detergent in lysis buffer [3]: highest signal intensity | light units (% of those obtained using 0.1% NP40) [3]: highest signal intensity

C[C@H](CCC(=O)NCCC[N+](C)(C)CCCS(=O)(=O)[O-])[C@H]1CC[C@H]2[C@@H]3[C@H](O)C[C@@H]4C[C@H](O)CC[C@]4(C)[C@H]3C[C@H](O)[C@]12C [CHAPS]
light units (% of those obtained using 0.1% NP40) [2]: insufficient to lyse the cells; also recorded: highest activity for non-secreted Metridia luciferase | signal intensity with detergent in lysis buffer [3]: appeared not to lyse the cells at 0.1% | light units (% of those obtained using 0.1% NP40) [3]: insufficient to lyse the cells

O=C(O)CN(CC(=O)O)C1CCCCC1N(CC(=O)O)CC(=O)O (stereo not drawn) [CDTA]
signal intensity [2]: concentration-dependent beneficial effect on signal intensity

[Br-].[Na+] [NaBr, sodium bromide]
increase in activity between 30 and 120 min lysis [2]: performed better than NaCl | light output (% of light units obtained in the absence of salt) ([2]; salt in lysis buffer, assayed 30 min after lysis buffer, FIG. 4): superior enhancement to NaCl | light output (% of light units obtained in the absence of salt) [4]: higher than with either NaCl or no salt | luciferase activity (RLU) ([3]; NaBr in lysis buffer or assay buffer, final 75 mM, FIG. 2): enhances activity of non-secreted Gaussia luciferase, especially when included in lysis buffer | stability of luciferase activity between 20 and 90 min after onset of cell lysis [3]: far more stable (and therefore more desirable) level of luciferase activity | light output (% of light units obtained in the absence of salt) [3]: superior enhancement to NaCl

C[C@H](CCC(=O)[O-])[C@H]1CC[C@H]2[C@@H]3CC[C@@H]4C[C@H](O)CC[C@]4(C)[C@H]3C[C@H](O)[C@]12C.[Na+] [DOC]
light units (% of those obtained using 0.1% NP40) [2]: concentration-dependent inhibition on signal intensity. This effect was most evident | signal intensity with detergent in lysis buffer [3]: do not perform well | light units (% of those obtained using 0.1% NP40) [3]: concentration-dependent inhibition on signal intensity. This effect was most evident

Triton X100
light units (% of those obtained using 0.1% NP40) [2]: highest signal intensity | light units (% of those obtained using 0.1% NP40) [3]: highest signal intensity
